Patent US20230085307A1, “PYRIDAZINONE COMPOUND AND HERBICIDE” (NISSAN CHEMICAL CORPORATION, priority 2019, published 2023)

Key:
false cleavers [1] = assay: Test Example 4: herbicidal effect by soil treatment (Table 19, symbol Q); type: in vivo, false cleavers (Galium spurium)
Summary of the method: (§1)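 Applied as a water-diluted emulsion, the compound was sprayed onto soil covering newly sown seeds. Evaluation came three weeks after application, in a greenhouse held at 25° C. to 30° C.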

velvetleaf [2] = assay: Test Example 4: herbicidal effect by soil treatment (Table 19, symbol M); type: in vivo, velvetleaf (Abutilon theophrasti)
Summary of the method: as §1

southern crabgrass [3] = assay: Test Example 5: herbicidal effect by foliage application, plastic box (Table 20, symbol F); type: in vivo, southern crabgrass (Digitaria ciliaris); details: foliage application
Summary of the method: (§2)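 Sow seeds spot-wise in sterilized diluvial soil; cover with ~1.5 cm soil. Grow 14 days in greenhouse, 25° C. to 30° C. Spray foliage with emulsion diluted to predetermined amount. Rate effect after 3 weeks.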

barnyard grass [4] = assay: Test Example 3: herbicidal effect by foliage application, Wagner pot (Table 18, symbol H); type: in vivo, barnyard grass (Echinochloa crus-galli); details: 320 g/ha
Summary of the method: (§3)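 Plants were sown in alluvial soil held under 0.1–0.5 cm standing water and grown 14 days in a greenhouse at 25–30 °C. An emulsifiable formulation, water-diluted to the set dose, was then sprayed onto the foliage, and effects were scored three weeks later using previously defined criteria.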

Italian ryegrass [5] = assay: Test Example 5: herbicidal effect by foliage application, plastic box (Table 20, symbol K); type: in vivo, Italian ryegrass (Lolium multiflorum); details: foliage application
Summary of the method: as §2

persian speedwell [6] = assay: Test Example 5: herbicidal effect by foliage application, plastic box (Table 20, symbol R); type: in vivo, Persian speedwell (Veronica persica); details: foliage application
Summary of the method: as §2

windgrass [7] = assay: Test Example 5: herbicidal effect by foliage application, plastic box (Table 20, symbol L); type: in vivo, windgrass (Apera spica-venti); details: foliage application
Summary of the method: as §2

blackgrass [8] = assay: Test Example 5: herbicidal effect by foliage application, plastic box (Table 20, symbol J); type: in vivo, blackgrass (Alopecurus myosuroides); details: foliage application
Summary of the method: as §2

barnyard grass [9] = assay: Test Example 4: herbicidal effect by soil treatment (Table 19, symbol H); type: in vivo, barnyard grass (Echinochloa crus-galli)
Summary of the method: as §1

southern crabgrass [10] = assay: Test Example 4: herbicidal effect by soil treatment (Table 19, symbol F); type: in vivo, southern crabgrass (Digitaria ciliaris)
Summary of the method: as §1

redroot pigweed [11] = assay: Test Example 5: herbicidal effect by foliage application, plastic box (Table 20, symbol N); type: in vivo, redroot pigweed (Amaranthus retroflexus); details: foliage application
Summary of the method: as §2

rice flat sedge = assay: Test Example 3: herbicidal effect by foliage application, Wagner pot (Table 18, symbol E); type: in vivo, rice flat sedge (Cyperus iria); details: 320 g/ha
Summary of the method: as §3

Italian ryegrass [12] = assay: Test Example 4: herbicidal effect by soil treatment (Table 19, symbol K); type: in vivo, Italian ryegrass (Lolium multiflorum)
Summary of the method: as §1

lambsquarters [13] = assay: Test Example 4: herbicidal effect by soil treatment (Table 19, symbol O); type: in vivo, lambsquarters (Chenopodium album)
Summary of the method: as §1

velvetleaf [14] = assay: Test Example 5: herbicidal effect by foliage application, plastic box (Table 20, symbol M); type: in vivo, velvetleaf (Abutilon theophrasti); details: foliage application
Summary of the method: as §2

blackgrass [15] = assay: Test Example 4: herbicidal effect by soil treatment (Table 19, symbol J); type: in vivo, blackgrass (Alopecurus myosuroides)
Summary of the method: as §1

chickweed [16] = assay: Test Example 4: herbicidal effect by soil treatment (Table 19, symbol P); type: in vivo, common chickweed (Stellaria media)
Summary of the method: as §1

false cleavers [17] = assay: Test Example 5: herbicidal effect by foliage application, plastic box (Table 20, symbol Q); type: in vivo, false cleavers (Galium spurium); details: foliage application
Summary of the method: as §2

lambsquarters [18] = assay: Test Example 5: herbicidal effect by foliage application, plastic box (Table 20, symbol O); type: in vivo, lambsquarters (Chenopodium album); details: foliage application
Summary of the method: as §2

redroot pigweed [19] = assay: Test Example 4: herbicidal effect by soil treatment (Table 19, symbol N); type: in vivo, redroot pigweed (Amaranthus retroflexus)
Summary of the method: as §1

barnyard grass [20] = assay: Test Example 5: herbicidal effect by foliage application, plastic box (Table 20, symbol H); type: in vivo, barnyard grass (Echinochloa crus-galli); details: foliage application
Summary of the method: as §2

green foxtail [21] = assay: Test Example 5: herbicidal effect by foliage application, plastic box (Table 20, symbol G); type: in vivo, green foxtail (Setaria viridis); details: foliage application
Summary of the method: as §2

wild oat [22] = assay: Test Example 4: herbicidal effect by soil treatment (Table 19, symbol I); type: in vivo, wild oat (Avena fatua)
Summary of the method: as §1

persian speedwell [23] = assay: Test Example 4: herbicidal effect by soil treatment (Table 19, symbol R); type: in vivo, Persian speedwell (Veronica persica)
Summary of the method: as §1

wild oat [24] = assay: Test Example 5: herbicidal effect by foliage application, plastic box (Table 20, symbol I); type: in vivo, wild oat (Avena fatua); details: foliage application
Summary of the method: as §2

chickweed [25] = assay: Test Example 5: herbicidal effect by foliage application, plastic box (Table 20, symbol P); type: in vivo, common chickweed (Stellaria media); details: foliage application
Summary of the method: as §2

Chinese sprangletop = assay: Test Example 3: herbicidal effect by foliage application, Wagner pot (Table 18, symbol D); type: in vivo, chinese sprangletop (Leptochloa chinensis); details: 320 g/ha
Summary of the method: as §3

green foxtail [26] = assay: Test Example 4: herbicidal effect by soil treatment (Table 19, symbol G); type: in vivo, green foxtail (Setaria viridis)
Summary of the method: as §1

windgrass [27] = assay: Test Example 4: herbicidal effect by soil treatment (Table 19, symbol L); type: in vivo, windgrass (Apera spica-venti)
Summary of the method: as §1

[28] = amount of applied herbicide 320 g/ha
[29] = AAH 320 g/ha, three weeks after application
[30] = 320 g/ha, evaluated three weeks after application

Cc1nn(C)c(=O)c(-c2c(-c3cccc4c3OCC4)sc3ccccc23)c1O [1-103]
herbicidal effect rating, Q: false cleavers (false cleavers [1]; [28]): 0 (Herbicidal rate of 5% or less (almost no effect)) | herbicidal effect rating, M: velvetleaf (velvetleaf [2]; [28]): 0 (Herbicidal rate of 5% or less (almost no effect)) | F: southern crabgrass, herbicidal effect (southern crabgrass [3]; [29]): 3 (Herbicidal rate of 40% or more and less than 70%) | herbicidal effect on H (barnyard grass), rating 0-5 (barnyard grass [4]): 3 (Herbicidal rate of 40% or more and less than 70%) | K: Italian ryegrass, herbicidal effect (Italian ryegrass [5]; [29]): 3 (Herbicidal rate of 40% or more and less than 70%) | R: persian speedwell, herbicidal effect (persian speedwell [6]; [29]): 5 (Herbicidal rate of 90% or more (almost completely withered)) | L: windgrass, herbicidal effect (windgrass [7]; [29]): 0 (Herbicidal rate of 5% or less (almost no effect)) | J: blackgrass, herbicidal effect (blackgrass [8]; [29]): 3 (Herbicidal rate of 40% or more and less than 70%) | herbicidal effect rating, H: barnyard grass (barnyard grass [9]; [28]): 2 (Herbicidal rate of 20% or more and less than 40%) | herbicidal effect rating, F: southern crabgrass (southern crabgrass [10]; [28]): 2 (Herbicidal rate of 20% or more and less than 40%) | N: redroot pigweed, herbicidal effect (redroot pigweed [11]; [29]): 3 (Herbicidal rate of 40% or more and less than 70%) | herbicidal effect on E (rice flat sedge), rating 0-5 (rice flat sedge): 3 (Herbicidal rate of 40% or more and less than 70%) | herbicidal effect rating, K: Italian ryegrass (Italian ryegrass [12]; [28]): 0 (Herbicidal rate of 5% or less (almost no effect)) | herbicidal effect rating, O: lambsquarters (lambsquarters [13]; [28]): 3 (Herbicidal rate of 40% or more and less than 70%) | M: velvetleaf, herbicidal effect (velvetleaf [14]; [29]): 4 (Herbicidal rate of 70% or more and less than 90%) | herbicidal effect rating, J: blackgrass (blackgrass [15]; [28]): 0 (Herbicidal rate of 5% or less (almost no effect)) | herbicidal effect rating, P: chickweed (chickweed [16]; [28]): 1 (Herbicidal rate of 5% or more and less than 20%) | Q: false cleavers, herbicidal effect (false cleavers [17]; [29]): 4 (Herbicidal rate of 70% or more and less than 90%) | O: lambsquarters, herbicidal effect (lambsquarters [18]; [29]): 3 (Herbicidal rate of 40% or more and less than 70%) | herbicidal effect rating, N: redroot pigweed (redroot pigweed [19]; [28]): 3 (Herbicidal rate of 40% or more and less than 70%) | H: barnyard grass, herbicidal effect (barnyard grass [20]; [29]): 0 (Herbicidal rate of 5% or less (almost no effect)) | G: green foxtail, herbicidal effect (green foxtail [21]; [29]): 3 (Herbicidal rate of 40% or more and less than 70%) | herbicidal effect rating, I: wild oat (wild oat [22]; [28]): 0 (Herbicidal rate of 5% or less (almost no effect)) | herbicidal effect rating, R: persian speedwell (persian speedwell [23]; [28]): 2 (Herbicidal rate of 20% or more and less than 40%) | I: wild oat, herbicidal effect (wild oat [24]; [29]): 0 (Herbicidal rate of 5% or less (almost no effect)) | P: chickweed, herbicidal effect (chickweed [25]; [29]): 5 (Herbicidal rate of 90% or more (almost completely withered)) | herbicidal effect on D (Chinese sprangletop), rating 0-5 (Chinese sprangletop): 4 (Herbicidal rate of 70% or more and less than 90%) | herbicidal effect rating, G: green foxtail (green foxtail [26]; [28]): 3 (Herbicidal rate of 40% or more and less than 70%) | herbicidal effect rating, L: windgrass (windgrass [27]; [28]): 0 (Herbicidal rate of 5% or less (almost no effect))

CCCC(=O)Oc1c(C)nn(C)c(=O)c1-c1c(-c2ccc(F)cc2)sc2ccc(Cl)cc12 [2-098]
herbicidal effect rating, Q: false cleavers (false cleavers [1]; 320 g/ha): 2 (Herbicidal rate of 20% or more and less than 40%) | herbicidal effect rating, M: velvetleaf (velvetleaf [2]; 320 g/ha): 3 (Herbicidal rate of 40% or more and less than 70%) | herbicidal effect on F: southern crabgrass (southern crabgrass [3]; [30]): 5 (Herbicidal rate of 90% or more (almost completely withered)) | herbicidal effect on H (barnyard grass), rating 0-5 (barnyard grass [4]): 5 (Herbicidal rate of 90% or more (almost completely withered)) | herbicidal effect on K: Italian ryegrass (Italian ryegrass [5]; [30]): 5 (Herbicidal rate of 90% or more (almost completely withered)) | herbicidal effect on R: persian speedwell (persian speedwell [6]; [30]): 5 (Herbicidal rate of 90% or more (almost completely withered)) | herbicidal effect on L: windgrass (windgrass [7]; [30]): 5 (Herbicidal rate of 90% or more (almost completely withered)) | herbicidal effect on J: blackgrass (blackgrass [8]; [30]): 4 (Herbicidal rate of 70% or more and less than 90%) | herbicidal effect rating, H: barnyard grass (barnyard grass [9]; 320 g/ha): 1 (Herbicidal rate of 5% or more and less than 20%) | herbicidal effect rating, F: southern crabgrass (southern crabgrass [10]; 320 g/ha): 3 (Herbicidal rate of 40% or more and less than 70%) | herbicidal effect on N: redroot pigweed (redroot pigweed [11]; [30]): 5 (Herbicidal rate of 90% or more (almost completely withered)) | herbicidal effect on E (rice flat sedge), rating 0-5 (rice flat sedge): 2 (Herbicidal rate of 20% or more and less than 40%) | herbicidal effect rating, K: Italian ryegrass (Italian ryegrass [12]; 320 g/ha): 5 (Herbicidal rate of 90% or more (almost completely withered)) | herbicidal effect rating, O: lambsquarters (lambsquarters [13]; 320 g/ha): 4 (Herbicidal rate of 70% or more and less than 90%) | herbicidal effect on M: velvetleaf (velvetleaf [14]; [30]): 4 (Herbicidal rate of 70% or more and less than 90%) | herbicidal effect rating, J: blackgrass (blackgrass [15]; 320 g/ha): 0 (Herbicidal rate of 5% or less (almost no effect)) | herbicidal effect rating, P: chickweed (chickweed [16]; 320 g/ha): 4 (Herbicidal rate of 70% or more and less than 90%) | herbicidal effect on Q: false cleavers (false cleavers [17]; [30]): 3 (Herbicidal rate of 40% or more and less than 70%) | herbicidal effect on O: lambsquarters (lambsquarters [18]; [30]): 4 (Herbicidal rate of 70% or more and less than 90%) | herbicidal effect rating, N: redroot pigweed (redroot pigweed [19]; 320 g/ha): 4 (Herbicidal rate of 70% or more and less than 90%) | herbicidal effect on H: barnyard grass (barnyard grass [20]; [30]): 4 (Herbicidal rate of 70% or more and less than 90%) | herbicidal effect on G: green foxtail (green foxtail [21]; [30]): 4 (Herbicidal rate of 70% or more and less than 90%) | herbicidal effect rating, I: wild oat (wild oat [22]; 320 g/ha): 2 (Herbicidal rate of 20% or more and less than 40%) | herbicidal effect rating, R: persian speedwell (persian speedwell [23]; 320 g/ha): 4 (Herbicidal rate of 70% or more and less than 90%) | herbicidal effect on I: wild oat (wild oat [24]; [30]): 5 (Herbicidal rate of 90% or more (almost completely withered)) | herbicidal effect on P: chickweed (chickweed [25]; [30]): 5 (Herbicidal rate of 90% or more (almost completely withered)) | herbicidal effect on D (Chinese sprangletop), rating 0-5 (Chinese sprangletop): 4 (Herbicidal rate of 70% or more and less than 90%) | herbicidal effect rating, G: green foxtail (green foxtail [26]; 320 g/ha): 0 (Herbicidal rate of 5% or less (almost no effect)) | herbicidal effect rating, L: windgrass (windgrass [27]; 320 g/ha): 3 (Herbicidal rate of 40% or more and less than 70%)
